Reference: patent US9084770B2, “Modulation of insulin like growth factor I receptor expression in cancer” (Antisense Therapeutics, Ltd., priority 2008, dated 2015)

Experiments:
IGF-IR mRNA [1] = assay: IGF-IR mRNA expression in transfected LNCaP and PC-3 cells, quantitative RT-PCR; assay type: cell-based, human; conditions: LNCaP and PC-3 cells, maximal doses tested
Method: (§1) Established methods were used to test the activity of IGF-IR antisense oligonucleotide on LNCaP and PC-3 cell growth (crystal violet assay) and apoptosis (FACS). Dose- and sequence-specific suppression of IGF-IR mRNA and protein expression in ATL1101-treated LNCaP and PC3 PC cell lines in vitro were observed by QT-PCR and western blotting. Effects of the IGF-IR antisense oligonucleotide on various putative targets, including IGF-IR and downstream targets were evaluated using western blotting.
FIGS. 1A(i)-1A(ii) show the sequence-specific and dose-dependent suppression of IGF-IR mRNA expression levels by ATL1101 in LNCaP (FIG. 1A (i)) and PC-3 (FIG. 1A (ii)) cells. […] One day after treatment, total RNA was extracted, and IGF-IR mRNA expression was analyzed by quantitative RT-PCR. IGF-IR mRNA levels were normalized to levels of GAPDH mRNA and expressed here as mean±SE. ***, p<0.001 differ from control (oligofectamine only) by Student's t test. “Control” cells were treated with oligofectamine only. In LNCaP cells, IGF-IR expression was >70% suppressed by 10 nM ATL1101 and >90% at 200 nM ATL1101. In PC3 cells, IGF-IR expression was suppressed ˜40% at 10 nM ATL1101, >50% at 50 nM ATL1101 and ˜80% at 200 nM. Control oligodeoxynucleotide (ISIS 306064) did suppress IGF-IR mRNA expression but by less than 25% at maximal doses tested

LNCaP cells [2] = assay: LNCaP cell viability, crystal violet assay; assay type: cell-based, human; conditions: three days after treatment
Method: as §1
(§2) Cells were transfected with indicated concentrations of ATL1101, control oligodeoxynucleotides or oligofectamine as in FIGS. 1A(i)-1A(ii). Three days after treatment, cell viability was determined by crystal violet assay. Viable cell density was normalized to that of cells treated with oligofectamine. Points, means of triplicate analysis; bars, SE. *, p<0.05 differs from control oligodeoxynucleotide treatment group. **, p<0.01 differs from control oligodeoxynucleotide treatment group by Student's t test.

PC3 cells [3] = assay: PC3 cell viability, crystal violet assay; assay type: cell-based, human; conditions: three days after treatment
Method: as §1, §2

[4] = system: IGF-IRβ, p-AKT, p-ERK1/2, cleaved PARP; assay: Intracellular signaling in LNCaP and PC3 cells, immunoblot; assay type: cell-based, human; conditions: 100 nM
Method: The suppression of intracellular signaling in IGF-IR antisense oligonucleotide-treated LNCaP (FIG. 3A) and PC3 (FIG. 3B) in vitro is shown in FIGS. 3A-3B. LNCaP or PC3 cells were transfected with 100 nM ATL1101 or control oligodeoxynucleotide (ISIS 306064) for two days. Cells were then cultured in FBS media for one day and in serum-free media for one day. Whole cell lysates (30 μg) were subjected to SDS-PAGE and immunoblotted to assess IGF-IRβ, p-AKT, total AKT, p-ERK1/2, total ERK1/2, cleaved PARP, and vinculin protein levels. Oligo, oligofectamine treated cells only.

LNCaP cells [5] = assay: LNCaP cell cycle and apoptosis, flow cytometry with propidium iodide; assay type: cell-based, human; conditions: 100 nM
Method: as §1
(§3) The Effect of IGF-IR silencing with IGF-IR antisense oligonucleotide (ATL1101) on LNCaP and PC3 cell apoptosis and cell cycle is shown in FIGS. 4A(i)-(ii), 4B, 4C(i)-(ii), and Table 2. Cells were transfected with indicated concentrations of ATL1101, control oligodeoxynucleotide or oligofectamine as in FIGS. 1A(i)-1B(ii). Two days after treatment, cell cycle analysis was determined by flow cytometry using propidium iodide staining. […] In FIGS. 4C(i)-(ii), LNCaP (FIG. 4C (i)) or PC-3 (FIG. 4C (ii)) cells were transfected with indicated concentration of ATL1101 or control oligodeoxynucleotide (ISIS 306064) for two days. Cells were then cultured in FBS media for one day and in serum-free media for one day. Whole cell lysates (30 μg) were subjected to SDS-PAGE and immunoblotted to assess Cyclin D1, Cyclin E, p-RB, total Rb, and p27 protein levels. Oligo, oligofectamine treated cells only.

PC3 cells [6] = assay: PC3 cell cycle and apoptosis, flow cytometry with propidium iodide; assay type: cell-based, human; conditions: PC3, FBS condition, 200 nM
Method: as §1, §3

PC3 tumors = assay: PC-3 xenograft with Paclitaxel, mean tumor volume; assay type: in vivo, mice; conditions: 15 mg/kg i.p. oligonucleotide plus Paclitaxel
Description: In vivo treatments in a PC-3 xenograft model were done substantially as described by Zellweger et al., 2001. PC3 cells (2×10^6 cells) were xenografted by subcutaneous injection into recipient 6-8 week-old athymic nude (nu/nu) mice. When tumors reached 200 mm^3, mice were randomly assigned to one of two arms for treatment with 2′-MOE-modified IGF-IR antisense oligonucleotide (ATL1101) plus Paclitaxel, or mismatch control oligodeoxynucleotide ISIS 306064 plus Paclitaxel. Each experimental group consisted of 10 mice. After randomization, 15 mg/kg of ATL1101 antisense oligonucleotide or mismatch control oligonucleotide were injected intraperitoneal (i.p.) into each mouse once daily for the first 5 days and 3 times a week (every other day) thereafter for 7 weeks. On days 7, 9, 11, and on days 21, 23, and 25, 0.5 mg of polymeric micellar Paclitaxel was administered once daily by i.v. injection. Mean Tumor volume was measured once weekly for 8 weeks and calculated by the formula length×width×depth×0.5236.
In PC3 mice, after 5 weeks of treatment, mean tumor size in mice treated with Paclitaxel and mismatch control oligodeoxynucleotide was 326+/−40.9 mm^3 compared with 175+/−20.1 mm^3 in mice treated with Paclitaxel and ATL1101, or 53.7% of control (p<0.01). After 8 weeks of treatment, mean tumor size in mice treated with Paclitaxel and mismatch control oligodeoxynucleotide was 1417+/−222 mm^3 compared with 507+/−79.3 mm^3 in mice treated with Paclitaxel and ATL1101, or 35.8% of control (p<0.01).

IGF-IR mRNA [7] = assay: IGF-IR mRNA in PC3 Ptx-R cells; assay type: cell-based, human; conditions: 10 to 200 nM, compared to oligofectamine transfection reagent
Description: (§4) The PC3 Ptx-R cells retain sensitivity to ATL1101-induced IGF-IR down regulation at the mRNA and protein level as shown in FIGS. 11A-C. […] ATL1101 and the control oligodeoxynucleotide ISIS 306064 had no effect on either of the alternative spliced isoform transcripts of the insulin receptor, IR-A, IR-B or IR-β protein or vinculin protein levels.

IGF-IRβ subunit protein = IGF-IRβ subunit protein in PC3 Ptx-R cells; assay type: cell-based, human; conditions: 10 to 200 nM, compared to oligofectamine transfection reagent
Description: as §4

[8] = system: insulin receptor IR-A, IR-B, IR-β protein; assay: Insulin receptor transcripts and protein in PC3 Ptx-R cells; assay type: cell-based, human
Description: as §4

Ptx-R PC3 cells = assay: Ptx-R PC3 viable cells after transfection with or without Paclitaxel; assay type: cell-based, human; conditions: 100 nM Paclitaxel and 25 nM oligonucleotide
Method: The number of viable PC3 and PtxR PC3 cells was determined 72 hours after the second transfection.
[…] The number of viable cells remaining was determined 72 hours after the second transfection treatment. ATL1101 treatment enhances the Ptx-R sensitivity to Paclitaxel under standard culture conditions. For example, there was approximately 45% cell viability with 100 nM Paclitaxel and 25 nM control oligodeoxynucleotide whereas, only 25 nM Paclitaxel is needed in the presence of 25 nM ATL1101 to produce the same reduction in cell viability.

With “ISIS 306064: 8 nucleotide mismatch control oligonucleotide; Negative Control ODN (CCAATGATAACAAACGCGGA; chemistry not given here) [reference compound]” as the substance, how does the “suppression of IGF-IR mRNA expression” value (IGF-IR mRNA [1]) read?
Its value is “less than 25%”.

What about the “cytotoxic effect on cell viability” value (LNCaP cells [2]) of the same substance?
The value was “dose-dependent cytotoxic effect”.

What about the “cytotoxic effect on cell viability” value (PC3 cells [3]) of the same substance?
The value was “dose-dependent cytotoxic effect”.

What about the “IGF-IR expression, down-stream kinase signaling and induction of PARP cleavage versus oligofectamine-treated cells” value [4] of the same substance?
Its value is “indistinguishable”.

And the “% of total cells, G0/G1” value (LNCaP cells [5]; CSS condition)?
Its value is 70.1%.

And the “% of total cells, G2/M” value (LNCaP cells [5]; CSS condition)?
Its value is 4.4%.

And the “% of total cells, S” value (LNCaP cells [5]; CSS condition)?
Its value is 3.8%.

What about the “% of total cells, Sub G0/G1” value (LNCaP cells [5]; CSS condition) of the same substance?
Its value is 21.7%.

And the “subG0/G1 + G0/G1:S + G2/M” value (LNCaP cells [5]; CSS condition)?
The value was 11.2.

And the “% of total cells, G0/G1” value (LNCaP cells [5]; FBS condition)?
The value was 65.4%.

And the “% of total cells, G2/M” value (LNCaP cells [5]; FBS condition)?
The value was 12.6%.

What about the “% of total cells, S” value (LNCaP cells [5]; FBS condition) of the same substance?
Its value is 11.2%.

And the “subG0/G1 + G0/G1:S + G2/M” value (LNCaP cells [5]; FBS condition)?
Its value is 3.2.

What about the “% of total cells, Sub G0/G1” value (LNCaP cells [5]; FBS condition, two days after treatment) of the same substance?
The value was 10.8%.

And the “% of total cells, G0/G1” value (PC3 cells [6])?
Its value is 58.5%.

What about the “% of total cells, G2/M” value (PC3 cells [6]) of the same substance?
Its value is 18.2%.

And the “% of total cells, S” value (PC3 cells [6])?
The value was 13.7%.

And the “% of total cells, Sub G0/G1” value (PC3 cells [6])?
Its value is 9.6%.

And the “subG0/G1 + G0/G1:S + G2/M” value (PC3 cells [6])?
Its value is 2.1.

And the mean tumor size (PC3 tumors; after 5 weeks of treatment)?
The mean tumor size was 326+/−40.9 mm^3.

What about the mean tumor size (PC3 tumors; after 8 weeks of treatment) of the same substance?
Its mean tumor size is 1417+/−222 mm^3.

And the “IGF-IR mRNA levels” value (IGF-IR mRNA [7])?
Its value is “no effect”.

What about the “IGF-IRβ subunit protein levels” value (IGF-IRβ subunit protein) of the same substance?
The value was “no effect”.

And the “insulin receptor IR-A, IR-B transcripts or IR-β protein levels” value [8]?
The value was “no effect”.

What about the cell viability (Ptx-R PC3 cells) of the same substance?
Its cell viability is “approximately 45%”.
